Results from ChEMBL document CHEMBL1155586, “Streptazones A, B(1), B(2), C, and D: new piperidine alkaloids from streptomycetes” (2000).
The source made the active and inactive calls. The calls are words filed in the database; no cut-off is given here.

Tests used:
[1] = system: MCF7; experiment: Cytotoxicity against human MCF7 cells; format: functional
[2] = Cytotoxicity against human Kato3 cells; format: functional
[3] = Cytotoxicity against human HMO2 cells; format: functional
[4] = system: HepG2; experiment: Cytotoxicity against human HepG2 cells; format: functional
[5] = system: MCF7; experiment: Cytotoxicity against human MCF7 cells at 50 umol/L; format: functional, cell-based
[6] = system: HMO2; experiment: Cytotoxicity against human HMO2 cells at 50 umol/L; format: functional, cell-based
[7] = system: Kato3; experiment: Cytotoxicity against human Kato3 cells at 50 umol/L; format: functional, cell-based

Structure (SMILES) | GI50 [1] [nM] | TGI [1] [nM] | GI50 [2] [nM] | TGI [2] [nM] | GI50 [3] [nM] | TGI [3] [nM] | GI50 [4] [nM] | TGI [4] [nM] | Activity [5] | Activity [6] | Activity [7]
C/C=C1\C(=O)C=C2NCCC3OC213 (stereo not given) [STREPTAZONE A] | 15000 | 50000 | 600 | 1000 | 500 | 50000 | < 100 | 2500 | – | – | –
C/C=C/C=C/C1=CC(=O)CCN1 | – | – | – | – | – | – | – | – | inactive | inactive | inactive
C/C=C1\C(=O)C=C2NCCC=C21 | – | – | – | – | – | – | – | – | inactive | inactive | inactive
C/C=C1/C2=CCCN3C(=O)O[C@H]([C@H]1O)[C@H]23 | – | – | – | – | – | – | – | – | inactive | inactive | inactive
C/C=C1\C=CC2=C1C(=O)CCN2 | – | – | – | – | – | – | – | – | inactive | inactive | inactive
